Source: the supplement of paper PMC10307832

Assays:
Assay in all cases: relative viability (nuclei count vs DMSO), 5 days (fraction); higher = more cells survive
XMD14-99 + Phenformin = compound: CN1CCN(CC1)C2=CC(=C(C=C2)NC3=NC(=C(S3)C(=O)C4=C(C=CC=C4Cl)Cl)N)OC [XMD14-99] + N=C(N)NC(=N)NCCc1ccccc1 [Phenformin] (partner 250 µM)
How it was run: (§1)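 For relative viability, nuclei counts in treated wells were divided by those in vehicle wells. Lung cancer cell lines had been pin-tool dosed in 1536-well plates the day after seeding and cultured for 5 days, then fixed and stained in one step (final 0.05% Triton X-100, 1% formaldehyde, 1 ug/ml Hoechst) and imaged at 4×. Doses were one drug alone or a fixed anchor-drug dose plus five library-drug doses (not always all listed) in √10 steps, and values are duplicate-plate medians.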

AZD1208 + Lapatinib = compound: N[C@@H]1CCCN(c2c(/C=C3\SC(=O)NC3=O)cccc2-c2ccccc2)C1 [AZD1208] + CS(=O)(=O)CCNCc1ccc(-c2ccc3ncnc(Nc4ccc(OCc5cccc(F)c5)c(Cl)c4)c3c2)o1 [Lapatinib] (partner 2 µM)
How it was run: as §1

AZD1208 + Bortezomib = compound: N[C@@H]1CCCN(c2c(/C=C3\SC(=O)NC3=O)cccc2-c2ccccc2)C1 [AZD1208] + CC(C)C[C@H](NC(=O)[C@H](Cc1ccccc1)NC(=O)c1cnccn1)B(O)O [Bortezomib] (partner 0.002 µM)
How it was run: as §1

XMD14-99 + Tozasertib = compound: CN1CCN(CC1)C2=CC(=C(C=C2)NC3=NC(=C(S3)C(=O)C4=C(C=CC=C4Cl)Cl)N)OC [XMD14-99] + Cc1cc(Nc2cc(N3CCN(C)CC3)nc(Sc3ccc(NC(=O)C4CC4)cc3)n2)n[nH]1 [Tozasertib] (partner 0.1 µM)
How it was run: as §1

NCI-H1993
relative viability (XMD14-99 + Phenformin; first compound 0.08 µM): 0.467
relative viability (XMD14-99 + Phenformin; first compound 0.8 µM): 0.506
relative viability (XMD14-99 + Phenformin; first compound 2.53 µM): 0.447
relative viability (XMD14-99 + Phenformin; first compound 8 µM): 0.436
relative viability (AZD1208 + Lapatinib; first compound 0.253 µM): 0.749
relative viability (AZD1208 + Lapatinib; first compound 0.8 µM): 0.689
relative viability (AZD1208 + Lapatinib; first compound 2.53 µM): 0.794
relative viability (AZD1208 + Lapatinib; first compound 8 µM): 0.75
relative viability (AZD1208 + Bortezomib; first compound 0.253 µM): 1.04
relative viability (AZD1208 + Bortezomib; first compound 0.8 µM): 0.925
relative viability (AZD1208 + Bortezomib; first compound 2.53 µM): 0.998
relative viability (AZD1208 + Bortezomib; first compound 8 µM): 0.888
relative viability (XMD14-99 + Tozasertib; first compound 0.08 µM): 0.602
relative viability (XMD14-99 + Tozasertib; first compound 0.8 µM): 0.68
relative viability (XMD14-99 + Tozasertib; first compound 2.53 µM): 0.549
relative viability (XMD14-99 + Tozasertib; first compound 8 µM): 0.571

NCI-H2009
relative viability (XMD14-99 + Phenformin; first compound 0.08 µM): 0.482
relative viability (XMD14-99 + Phenformin; first compound 0.8 µM): 0.442
relative viability (XMD14-99 + Phenformin; first compound 2.53 µM): 0.331
relative viability (XMD14-99 + Phenformin; first compound 8 µM): 0.251
relative viability (AZD1208 + Lapatinib; first compound 0.08 µM): 0.982
relative viability (AZD1208 + Lapatinib; first compound 0.253 µM): 1.21
relative viability (AZD1208 + Lapatinib; first compound 0.8 µM): 0.817
relative viability (AZD1208 + Lapatinib; first compound 2.53 µM): 0.742
relative viability (AZD1208 + Lapatinib; first compound 8 µM): 0.893
relative viability (AZD1208 + Bortezomib; first compound 0.08 µM): 1.01
relative viability (AZD1208 + Bortezomib; first compound 0.253 µM): 1.09
relative viability (AZD1208 + Bortezomib; first compound 0.8 µM): 0.968
relative viability (AZD1208 + Bortezomib; first compound 2.53 µM): 0.832
relative viability (AZD1208 + Bortezomib; first compound 8 µM): 1.02
relative viability (XMD14-99 + Tozasertib; first compound 0.08 µM): 0.683
relative viability (XMD14-99 + Tozasertib; first compound 0.8 µM): 0.617
relative viability (XMD14-99 + Tozasertib; first compound 2.53 µM): 0.541
relative viability (XMD14-99 + Tozasertib; first compound 8 µM): 0.399

NCI-H2023
relative viability (XMD14-99 + Phenformin; first compound 0.08 µM): 0.378
relative viability (XMD14-99 + Phenformin; first compound 0.8 µM): 0.422
relative viability (XMD14-99 + Phenformin; first compound 2.53 µM): 0.338
relative viability (XMD14-99 + Phenformin; first compound 8 µM): 0.245
relative viability (AZD1208 + Lapatinib; first compound 0.08 µM): 0.757
relative viability (AZD1208 + Lapatinib; first compound 0.253 µM): 0.903
relative viability (AZD1208 + Lapatinib; first compound 0.8 µM): 0.68
relative viability (AZD1208 + Lapatinib; first compound 2.53 µM): 0.668
relative viability (AZD1208 + Lapatinib; first compound 8 µM): 0.635
relative viability (AZD1208 + Bortezomib; first compound 0.08 µM): 0.888
relative viability (AZD1208 + Bortezomib; first compound 0.253 µM): 1.02
relative viability (AZD1208 + Bortezomib; first compound 0.8 µM): 0.983
relative viability (AZD1208 + Bortezomib; first compound 2.53 µM): 0.695
relative viability (AZD1208 + Bortezomib; first compound 8 µM): 0.849
relative viability (XMD14-99 + Tozasertib; first compound 0.08 µM): 0.396
relative viability (XMD14-99 + Tozasertib; first compound 0.8 µM): 0.332
relative viability (XMD14-99 + Tozasertib; first compound 2.53 µM): 0.302
relative viability (XMD14-99 + Tozasertib; first compound 8 µM): 0.185

NCI-H2085
relative viability (XMD14-99 + Phenformin; first compound 0.08 µM): 0.668
relative viability (XMD14-99 + Phenformin; first compound 0.8 µM): 0.68
relative viability (XMD14-99 + Phenformin; first compound 2.53 µM): 0.681
relative viability (XMD14-99 + Phenformin; first compound 8 µM): 0.572
relative viability (AZD1208 + Lapatinib; first compound 0.08 µM): 0.768
relative viability (AZD1208 + Lapatinib; first compound 0.253 µM): 0.862
relative viability (AZD1208 + Lapatinib; first compound 0.8 µM): 0.7
relative viability (AZD1208 + Lapatinib; first compound 2.53 µM): 0.687
relative viability (AZD1208 + Lapatinib; first compound 8 µM): 0.726
relative viability (AZD1208 + Bortezomib; first compound 0.08 µM): 1.07
relative viability (AZD1208 + Bortezomib; first compound 0.253 µM): 1.2
relative viability (AZD1208 + Bortezomib; first compound 0.8 µM): 0.938
relative viability (AZD1208 + Bortezomib; first compound 2.53 µM): 1.14
relative viability (AZD1208 + Bortezomib; first compound 8 µM): 1.05
relative viability (XMD14-99 + Tozasertib; first compound 0.08 µM): 0.752
relative viability (XMD14-99 + Tozasertib; first compound 0.8 µM): 0.779
relative viability (XMD14-99 + Tozasertib; first compound 2.53 µM): 0.716
relative viability (XMD14-99 + Tozasertib; first compound 8 µM): 0.464

NCI-H2087
relative viability (XMD14-99 + Phenformin; first compound 0.08 µM): 0.445
relative viability (XMD14-99 + Phenformin; first compound 0.8 µM): 0.408
relative viability (XMD14-99 + Phenformin; first compound 2.53 µM): 0.346
relative viability (XMD14-99 + Phenformin; first compound 8 µM): 0.2
relative viability (AZD1208 + Lapatinib; first compound 0.08 µM): 1.11
relative viability (AZD1208 + Lapatinib; first compound 0.253 µM): 1.32
relative viability (AZD1208 + Lapatinib; first compound 0.8 µM): 1.13
relative viability (AZD1208 + Lapatinib; first compound 2.53 µM): 1.47
relative viability (AZD1208 + Lapatinib; first compound 8 µM): 0.9
relative viability (AZD1208 + Bortezomib; first compound 0.08 µM): 0.827
relative viability (AZD1208 + Bortezomib; first compound 0.253 µM): 1.01
relative viability (AZD1208 + Bortezomib; first compound 0.8 µM): 0.846
relative viability (AZD1208 + Bortezomib; first compound 2.53 µM): 0.941
relative viability (AZD1208 + Bortezomib; first compound 8 µM): 0.909
relative viability (XMD14-99 + Tozasertib; first compound 0.08 µM): 0.225
relative viability (XMD14-99 + Tozasertib; first compound 0.8 µM): 0.253
relative viability (XMD14-99 + Tozasertib; first compound 2.53 µM): 0.228
relative viability (XMD14-99 + Tozasertib; first compound 8 µM): 0.169

NCI-H2126
relative viability (XMD14-99 + Phenformin; first compound 0.08 µM): 0.526
relative viability (XMD14-99 + Phenformin; first compound 0.8 µM): 0.51
relative viability (XMD14-99 + Phenformin; first compound 2.53 µM): 0.45
relative viability (XMD14-99 + Phenformin; first compound 8 µM): 0.421
relative viability (AZD1208 + Lapatinib; first compound 0.08 µM): 0.796
relative viability (AZD1208 + Lapatinib; first compound 0.253 µM): 0.689
relative viability (AZD1208 + Lapatinib; first compound 0.8 µM): 0.63
relative viability (AZD1208 + Lapatinib; first compound 2.53 µM): 0.691
relative viability (AZD1208 + Lapatinib; first compound 8 µM): 0.525
relative viability (AZD1208 + Bortezomib; first compound 0.08 µM): 1.1
relative viability (AZD1208 + Bortezomib; first compound 0.253 µM): 1.14
relative viability (AZD1208 + Bortezomib; first compound 0.8 µM): 1.09
relative viability (AZD1208 + Bortezomib; first compound 2.53 µM): 1.07
relative viability (AZD1208 + Bortezomib; first compound 8 µM): 1.1
relative viability (XMD14-99 + Tozasertib; first compound 0.08 µM): 0.811
relative viability (XMD14-99 + Tozasertib; first compound 0.8 µM): 0.806
relative viability (XMD14-99 + Tozasertib; first compound 2.53 µM): 0.791
relative viability (XMD14-99 + Tozasertib; first compound 8 µM): 0.693

NCI-H2228
relative viability (XMD14-99 + Phenformin; first compound 0.08 µM): 0.382
relative viability (XMD14-99 + Phenformin; first compound 0.8 µM): 0.344
relative viability (XMD14-99 + Phenformin; first compound 2.53 µM): 0.168
relative viability (XMD14-99 + Phenformin; first compound 8 µM): 0.152
relative viability (AZD1208 + Lapatinib; first compound 0.08 µM): 1.03
relative viability (AZD1208 + Lapatinib; first compound 0.253 µM): 1.3
relative viability (AZD1208 + Lapatinib; first compound 0.8 µM): 0.971
relative viability (AZD1208 + Lapatinib; first compound 8 µM): 0.652
relative viability (AZD1208 + Bortezomib; first compound 0.08 µM): 1.15
relative viability (AZD1208 + Bortezomib; first compound 0.253 µM): 1.15
relative viability (AZD1208 + Bortezomib; first compound 0.8 µM): 0.865
relative viability (AZD1208 + Bortezomib; first compound 8 µM): 0.704
relative viability (XMD14-99 + Tozasertib; first compound 0.08 µM): 0.234
relative viability (XMD14-99 + Tozasertib; first compound 0.8 µM): 0.258
relative viability (XMD14-99 + Tozasertib; first compound 2.53 µM): 0.187
relative viability (XMD14-99 + Tozasertib; first compound 8 µM): 0.148

NCI-H2347
relative viability (XMD14-99 + Phenformin; first compound 0.08 µM): 0.529
relative viability (XMD14-99 + Phenformin; first compound 0.8 µM): 0.422
relative viability (XMD14-99 + Phenformin; first compound 2.53 µM): 0.406
relative viability (XMD14-99 + Phenformin; first compound 8 µM): 0.251
relative viability (AZD1208 + Lapatinib; first compound 0.08 µM): 1.09
relative viability (AZD1208 + Lapatinib; first compound 0.253 µM): 1.11
relative viability (AZD1208 + Lapatinib; first compound 0.8 µM): 0.896
relative viability (AZD1208 + Lapatinib; first compound 2.53 µM): 0.843
relative viability (AZD1208 + Lapatinib; first compound 8 µM): 0.97
relative viability (AZD1208 + Bortezomib; first compound 0.08 µM): 0.933
relative viability (AZD1208 + Bortezomib; first compound 0.253 µM): 0.734
relative viability (AZD1208 + Bortezomib; first compound 0.8 µM): 0.822
relative viability (AZD1208 + Bortezomib; first compound 2.53 µM): 0.791
relative viability (AZD1208 + Bortezomib; first compound 8 µM): 1.08
relative viability (XMD14-99 + Tozasertib; first compound 0.08 µM): 0.555
relative viability (XMD14-99 + Tozasertib; first compound 0.8 µM): 0.641
relative viability (XMD14-99 + Tozasertib; first compound 2.53 µM): 0.442
relative viability (XMD14-99 + Tozasertib; first compound 8 µM): 0.405

NCI-H2405
relative viability (XMD14-99 + Phenformin; first compound 0.08 µM): 0.379
relative viability (XMD14-99 + Phenformin; first compound 0.8 µM): 0.39
relative viability (XMD14-99 + Phenformin; first compound 2.53 µM): 0.373
relative viability (XMD14-99 + Phenformin; first compound 8 µM): 0.231
relative viability (AZD1208 + Lapatinib; first compound 0.08 µM): 1.12
relative viability (AZD1208 + Lapatinib; first compound 0.253 µM): 1.05
relative viability (AZD1208 + Lapatinib; first compound 0.8 µM): 0.984
relative viability (AZD1208 + Lapatinib; first compound 2.53 µM): 1.04
relative viability (AZD1208 + Lapatinib; first compound 8 µM): 0.841
relative viability (AZD1208 + Bortezomib; first compound 0.08 µM): 0.986
relative viability (AZD1208 + Bortezomib; first compound 0.253 µM): 1.01
relative viability (AZD1208 + Bortezomib; first compound 0.8 µM): 0.936
relative viability (AZD1208 + Bortezomib; first compound 2.53 µM): 1.01
relative viability (AZD1208 + Bortezomib; first compound 8 µM): 0.989
relative viability (XMD14-99 + Tozasertib; first compound 0.08 µM): 0.758
relative viability (XMD14-99 + Tozasertib; first compound 0.8 µM): 0.713
relative viability (XMD14-99 + Tozasertib; first compound 2.53 µM): 0.701
relative viability (XMD14-99 + Tozasertib; first compound 8 µM): 0.501
